Measurements: PubChem BioAssay (NCI)
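How tested: cells in 96-well plates exposed to compound for 48 hours at five concentrations. GI50 = concentration required for 50% inhibition of growth. TGI: total growth inhibition.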

What was measured:
Experiment in all cases: NCI tumour cell line growth inhibition, 48 h
NCI-H226 lung = test system: NCI-H226 lung
U251 CNS = test system: U251 CNS
SK-OV-3 ovarian = test system: SK-OV-3 ovarian
RXF 393 renal = test system: RXF 393 renal
MCF7 breast = test system: MCF7 breast
HCT-116 colon = test system: HCT-116 colon
SK-MEL-5 melanoma = test system: SK-MEL-5 melanoma
OVCAR-3 ovarian = test system: OVCAR-3 ovarian
SF-295 CNS = test system: SF-295 CNS
A549 NSCLC = test system: A549 NSCLC
HL-60(TB) leukemia = test system: HL-60(TB) leukemia
MDA-MB-435 = test system: MDA-MB-435
HOP-92 NSCLC = test system: HOP-92 NSCLC
EKVX NSCLC = test system: EKVX NSCLC
OVCAR-4 ovarian = test system: OVCAR-4 ovarian
SN12C renal = test system: SN12C renal
LOX IMVI melanoma = test system: LOX IMVI melanoma
SW-620 colon = test system: SW-620 colon
SF-539 CNS = test system: SF-539 CNS
OVCAR-5 ovarian = test system: OVCAR-5 ovarian
TK-10 renal = test system: TK-10 renal
UACC-257 melanoma = test system: UACC-257 melanoma
HS 578T breast = test system: HS 578T breast
HOP-62 NSCLC = test system: HOP-62 NSCLC
SNB-75 CNS = test system: SNB-75 CNS
NCI-H522 lung = test system: NCI-H522 lung
HCC-2998 colon = test system: HCC-2998 colon
OVCAR-8 ovarian = test system: OVCAR-8 ovarian
A498 renal = test system: A498 renal
RPMI-8226 leukemia = test system: RPMI-8226 leukemia
SNB-19 CNS = test system: SNB-19 CNS
SK-MEL-2 melanoma = test system: SK-MEL-2 melanoma
MALME-3M melanoma = test system: MALME-3M melanoma
BT-549 breast = test system: BT-549 breast
M14 melanoma = test system: M14 melanoma
T-47D breast = test system: T-47D breast
KM12 colon = test system: KM12 colon
COLO 205 colon = test system: COLO 205 colon
SK-MEL-28 melanoma = test system: SK-MEL-28 melanoma
UACC-62 melanoma = test system: UACC-62 melanoma
PC-3 prostate = test system: PC-3 prostate
786-0 renal = test system: 786-0 renal
NCI-H23 lung = test system: NCI-H23 lung
CAKI-1 renal = test system: CAKI-1 renal
NCI/ADR-RES ovarian = test system: NCI/ADR-RES ovarian
MDA-MB-231 breast = test system: MDA-MB-231 breast
IGROV1 ovarian = test system: IGROV1 ovarian
HCT-15 colon = test system: HCT-15 colon
MOLT-4 leukemia = test system: MOLT-4 leukemia
DU-145 prostate = test system: DU-145 prostate
K-562 leukemia = test system: K-562 leukemia
CCRF-CEM leukemia = test system: CCRF-CEM leukemia
UO-31 renal = test system: UO-31 renal
ACHN renal = test system: ACHN renal
NCI-H460 lung = test system: NCI-H460 lung
HT29 colon = test system: HT29 colon
SF-268 CNS = test system: SF-268 CNS

In the case of `COc1cc(/C=C/C(=O)c2cc(OC)c(OC)c(OC)c2)ccc1OCc1ccccc1`, the GI50 (NCI-H226 lung) is reported as 4.16 µM, the TGI (NCI-H226 lung) is reported as > 100 µM and the GI50 (U251 CNS) is reported as 2360 nM. The TGI (U251 CNS) was 7.5 µM, the GI50 (SK-OV-3 ovarian) was 4.2 µM and the TGI (SK-OV-3 ovarian) was > 100 µM. It also gave a GI50 (RXF 393 renal) of 2180 nM, a TGI (RXF 393 renal) of 6.07 µM and a GI50 (MCF7 breast) of 2530 nM. The TGI (MCF7 breast) was > 100 µM, the GI50 (HCT-116 colon) was 2730 nM and the TGI (HCT-116 colon) was > 100 µM. The GI50 (SK-MEL-5 melanoma) was 2650 nM, the TGI (SK-MEL-5 melanoma) was 11.1 µM and the GI50 (OVCAR-3 ovarian) was 3.75 µM. For the same compound, the TGI (OVCAR-3 ovarian) was > 100 µM, the GI50 (SF-295 CNS) was 3.16 µM and the TGI (SF-295 CNS) was > 100 µM. For the same compound, the GI50 (A549 NSCLC) was 2770 nM, the TGI (A549 NSCLC) was > 100 µM and the GI50 (HL-60(TB) leukemia) was 2140 nM. The TGI (HL-60(TB) leukemia) was 7.61 µM, the GI50 (MDA-MB-435) was 3.2 µM and the TGI (MDA-MB-435) was > 100 µM. The GI50 (HOP-92 NSCLC) was 1880 nM, the TGI (HOP-92 NSCLC) was 7.57 µM and the GI50 (EKVX NSCLC) was 4.33 µM. For the same compound, the TGI (EKVX NSCLC) was 51.6 µM, the GI50 (OVCAR-4 ovarian) was 2840 nM and the TGI (OVCAR-4 ovarian) was > 100 µM. For the same compound, the GI50 (SN12C renal) was 1940 nM, the TGI (SN12C renal) was 6.59 µM and the GI50 (LOX IMVI melanoma) was 1690 nM. For the same compound, the TGI (LOX IMVI melanoma) was 4.09 µM, the GI50 (SW-620 colon) was 3.61 µM and the TGI (SW-620 colon) was > 100 µM. The GI50 (SF-539 CNS) was 2040 nM, the TGI (SF-539 CNS) was 4.28 µM and the GI50 (OVCAR-5 ovarian) was 2670 nM. The TGI (OVCAR-5 ovarian) was 13.7 µM, the GI50 (TK-10 renal) was 4.97 µM and the TGI (TK-10 renal) was > 100 µM. The GI50 (UACC-257 melanoma) was 3.29 µM, the TGI (UACC-257 melanoma) was 68.9 µM and the GI50 (HS 578T breast) was 4.06 µM. For the same compound, the TGI (HS 578T breast) was > 100 µM, the GI50 (HOP-62 NSCLC) was 3.49 µM and the TGI (HOP-62 NSCLC) was 43.4 µM. For the same compound, the GI50 (SNB-75 CNS) was 1700 nM, the TGI (SNB-75 CNS) was 3.62 µM and the GI50 (NCI-H522 lung) was 1450 nM. It also gave a TGI (NCI-H522 lung) of 3.43 µM, a GI50 (HCC-2998 colon) of 2800 nM and a TGI (HCC-2998 colon) of 7.91 µM. It also gave a GI50 (OVCAR-8 ovarian) of 2160 nM, a TGI (OVCAR-8 ovarian) of 5.8 µM and a GI50 (A498 renal) of 15.8 µM. For the same compound, the TGI (A498 renal) was 58.9 µM, the GI50 (RPMI-8226 leukemia) was 1900 nM and the TGI (RPMI-8226 leukemia) was > 100 µM. For the same compound, the GI50 (SNB-19 CNS) was 2640 nM, the TGI (SNB-19 CNS) was 8.69 µM and the GI50 (SK-MEL-2 melanoma) was 3.7 µM. The TGI (SK-MEL-2 melanoma) was 25.3 µM, the GI50 (MALME-3M melanoma) was 5.08 µM and the TGI (MALME-3M melanoma) was > 100 µM. It also gave a GI50 (BT-549 breast) of 1830 nM, a TGI (BT-549 breast) of 3.9 µM and a GI50 (M14 melanoma) of 4.77 µM. For the same compound, the TGI (M14 melanoma) was > 100 µM, the GI50 (T-47D breast) was 2960 nM and the TGI (T-47D breast) was > 100 µM. The GI50 (KM12 colon) was 3.6 µM, the TGI (KM12 colon) was > 100 µM and the GI50 (COLO 205 colon) was 3.34 µM. The TGI (COLO 205 colon) was 26.2 µM, the GI50 (SK-MEL-28 melanoma) was 3.79 µM and the TGI (SK-MEL-28 melanoma) was 30.6 µM. It also gave a GI50 (UACC-62 melanoma) of 1820 nM, a TGI (UACC-62 melanoma) of 4.51 µM and a GI50 (PC-3 prostate) of 3.16 µM. For the same compound, the TGI (PC-3 prostate) was > 100 µM, the GI50 (786-0 renal) was 4.71 µM and the TGI (786-0 renal) was > 100 µM. The GI50 (NCI-H23 lung) was 2370 nM, the TGI (NCI-H23 lung) was 7.23 µM and the GI50 (CAKI-1 renal) was 4.11 µM. For the same compound, the TGI (CAKI-1 renal) was > 100 µM, the GI50 (NCI/ADR-RES ovarian) was 2820 nM and the TGI (NCI/ADR-RES ovarian) was 9.4 µM. For the same compound, the GI50 (MDA-MB-231 breast) was 2830 nM, the TGI (MDA-MB-231 breast) was > 100 µM and the GI50 (IGROV1 ovarian) was 3.06 µM. The TGI (IGROV1 ovarian) was > 100 µM, the GI50 (HCT-15 colon) was 1750 nM and the TGI (HCT-15 colon) was 5.28 µM. For the same compound, the GI50 (MOLT-4 leukemia) was 3.01 µM, the TGI (MOLT-4 leukemia) was 73.4 µM and the GI50 (DU-145 prostate) was 3.55 µM. For the same compound, the TGI (DU-145 prostate) was > 100 µM, the GI50 (K-562 leukemia) was 2590 nM and the TGI (K-562 leukemia) was > 100 µM. The GI50 (CCRF-CEM leukemia) was 3000 nM, the TGI (CCRF-CEM leukemia) was > 100 µM and the GI50 (UO-31 renal) was 2200 nM. The TGI (UO-31 renal) was > 100 µM, the GI50 (ACHN renal) was 2160 nM and the TGI (ACHN renal) was 5.75 µM. For the same compound, the GI50 (NCI-H460 lung) was 2330 nM, the TGI (NCI-H460 lung) was 6.16 µM and the GI50 (HT29 colon) was 2660 nM. The TGI (HT29 colon) was > 100 µM, the GI50 (SF-268 CNS) was 3.65 µM and the TGI (SF-268 CNS) was > 100 µM.
